Assay results as given in US6399745B1, “Use of leptin antagonists for treating insulin resistance in type II diabetes” (Aventis Pharma Deutschland GmbH, priority 1996, dated 2002).

Tests used:
isolated rat adipocytes [1] = assay: Antagonism of fragment 116-167 to the leptin effect: insulin-stimulated glucose transport; assay type: cell-based
Procedure: Adipocytes were prepared from the epididymal fat tissue of male Wistar rats (140-160 g, Hoechst AG breeding station, Kastengrund) by means of digesting with collagenase (Rodbell, 1964, J. Biol. Chem. 239, 375-380), washed twice with KRH (25 mM Hepes free acid, 25 mM Hepes sodium salt, 80 mM NaCl, 1 mM MgSO4, 2 mM CaCl2, 6 mM KCl, 1 mM sodium pyruvate, 0.5% BSA) and once with DMEM (Dulbecco's minimal essential medium), supplemented with 5.5 mM glucose, 20 mM Hepes (pH 7.4), 2% fetal calf serum, 1% BSA, 50 U of penicillin/ml, […], by means of flotation (800×g, 1 min, in small plastic tubes), and finally diluted to a volume of 20 ml of DMEM/g wet weight of the fat tissue (cell titer: approximately 2.5×10^5 cells/ml). […]
Glucose transport was measured as the specific uptake of the non-metabolizable glucose analog 2-deoxyglucose (Muller and Wied, 1993, Diabetes 42, 1852-1867). […] After 10 ml of scintillation fluid (water-based) had been added, the radioactivity associated with the cells was measured. […]
Isolated rat adipocytes were incubated for 17.5 h in primary culture in the presence or absence of leptin (10 nM) and increasing concentrations of leptin fragment 116-167. […] The stimulation factor for insulin was calculated as the ratio between the insulin-stimulated activity and the basal activity. […]

isolated rat adipocytes [2] = assay: Insulin stimulation of glycogenesis in isolated rat adipocytes under leptin; assay type: cell-based; settings: basal values unaffected
ob/ob mice = settings: injection; cited from earlier work
[3] = test system: insulin receptor and insulin receptor substrate 1 (IRS-1); settings: rat 1 fibroblasts overexpressing human insulin receptor; cited from earlier work
C2C12 mouse myotubes = settings: cited from earlier work

Row | Substance | Glucose Transport, stimulation factor for insulin (stimulated/basal) (isolated rat adipocytes [1]; Insulin only, 5 nM (no leptin, no fragment)) | Glucose Transport, stimulation factor for insulin (stimulated/basal) (isolated rat adipocytes [1]; Leptin: 10 nM 17.5 h, no fragment, Insulin: 5 nM) | insulin sensitivity of stimulation of glycogenesis (isolated rat adipocytes [2]) | nutrient intake (ob/ob mice) | weight (ob/ob mice) | insulin-induced phosphorylation of the insulin receptor and of IRS-1 [3] | glucose transport (C2C12 mouse myotubes) | glycogen synthesis (C2C12 mouse myotubes)
1 | Insulin: human insulin used to stimulate adipocytes [reference compound] | 13.4 | – | – | – | – | – | – | –
2 | Leptin | – | 3.55 | drastically reduced | reduction in nutrient intake | decrease in weight | decreases | stimulated | stimulated
